From US4990703A, “Novel tetrahydronaphthalene and indane derivatives” (Hoffmann-La Roche Inc., priority 1989, dated 1991)

Assays:
[1] = tested on: keratin-filled utriculi of the rhino mouse; test: Anti-keratinizing activity in the rhino mouse; type: in vivo
From the text: (A) The antikeratinizing activity can be determined on the rhino mouse model according to the following procedure. The skin of the rhino mouse is characterized by the presence of keratin-filled utriculi of the epidermis and subcutaneous cysts, both of which are derived from hair follicles. The administration of retinoids leads to a hyperproliferation of the epidermis and of the epithelial lining of the utriculi. The thickening of the epidermis and the reduction in the size of the utriculi lead to a normalization of the altered structure of the epithelial layer. The daily topical application of 0.1 ml/cm^2 skin of the rhino mouse of a 3% acetone solution of an active test compound over a period of 3 weeks or the thrice weekly oral administration in arachis oil over a period of weeks leads to a significant proliferation of the epidermis and a striking reduction of the keratin-filled utriculi.

[2] = tested on: chemically-induced breast tumours; test: Prophylaxis of chemically-induced breast tumours (dimethylbenz(a)anthracene); type: in vivo, Female Sprague-Dawley rats; conditions: 11 weeks
Experimental: (B) The activity in the prevention of chemically-induced breast tumours can be determined according to the following procedure. Female Sprague-Dawley rats are kept under temperature-controlled and light-controlled conditions, with free access to drinking water and feed. At the age of 50 days 15 mg of dimethylbenz(a)anthracene disolved in arachis oil are administered to each rat by means of a probang. The treatment with the test compounds begins 1 day after the administration of the carcinogen. The body weights of the test animals are recorded and the tumours are palpated weekly and measured with a vernier caliper. The volumes are calculated according to the formula [formula] in which D is the larger diameter of the tumour ellipsoid and d is the smaller diameter of the tumour ellipsoid. After 11 weeks the test is terminated and evaluated. In this test there are used in addition to 30 control animals, which receive exclusively normal feed the following two groups of test animals:
1. 33 rats to which are administered daily 30 mg/kg of test compound mixed with the feed.
2. 36 rats to which are administered daily 90 mg/kg of test compound mixed with the feed.

[3] = tested on: squamous metaplasia of the vaginal epithelium; test: Antimetaplastic activity in the rat (hormone-induced squamous metaplasia of the vaginal epithelium); type: in vivo, Female Holtzmann rats; conditions: oral; all-trans-retinoic acid = 1; from average effective dosages (Behrens and Karber)
From the text: (D) The antimetaplastic activity can also be determined in rats according to the following method. Female Holtzmann rats weighing approximately 100 g are ovarectomized under Thiogenal narcosis after an adaptation period of 8 days and are used in the test after a further 14 days. In each case two animals are placed in a cage with free access to feed which contains approximately 2000 IU of vitamin A determined analytically. Prior to the oral administration of the test compound the animals are treated subcutaneously each day on 6 successive days with 1 μg of estradiol benzoate and 250 μg of testosterone propionate dissolved in 0.1 ml of sesame oil. […] 2 days after the oral administration of the test substance the result of the reaction is again read off on the vaginal epithelium. The area method according to Behrens and Karber is employed to calculate the average effective dosages.

[4] = tested on: testosterone-stimulated sebum secretion; test: Inhibition of sebum production in the rat; type: in vivo, rat (castrated male); conditions: 100 μg/rat p.o., daily for 14 days
Experimental: (E) The activity of the compounds I on sebum secretion in rats was determined according to the following procedure. Male rats of approximately 50-60 g body weight were castrated at the age of 21-22 days. One week after this operation the rats were washed in a cleansing solution in order to remove sebum which was excreted prior to the test period. Only the carrier materials used were administered to one group of rats. A further group of rats also simultaneously received 100 μg of testosterone propionate in 0.2 ml of sesame oil per rat and day. To a further group of rats there were administered daily per rat 100 μg of testosterone propionate in 0.2 ml of sesame oil subcutaneously and the test compounds in various dosages in 0.2 ml of propylene glycol orally. The rats were thus-treated for 14 days. On the 15th day the sebum from the skin surface and the pelt was removed by immersing the entire body of the test animals in a determined volume of acetone and bathing therein for 2 minutes. An aliquot of the solvent bath was evaporated and the solid residue was determined gravimetrically. The inhibition of the testosterone-stimulated increase in the serum secretion in comparison to the corresponding values from rats treated only with testosterone propionate was used as the measurement for the activity.

[5] = tested on: transplantable chondrosarcoma of the rat; test: Activity on transplantable chondrosarcoma of the rat; type: in vivo, rat (albino rats); conditions: five times per week for 24 days
Experimental: (C) Furthermore, the activity on tumours can be determined on the transplantable chondrosarcoma of the rat according to the following method. The solid tumour of a donor animal is finely minced and suspended in phosphate buffer/sodium chloride solution. 0.5 ml of the 30% tumour suspension is implanted subcutaneously into albino rats.
The transplanted rats are divided into test groups of in each case 8 animals. The test compounds are suspended in arachis oil and administered orally five times per week for 24 days. The tumours are excised and weighed on day 24. The results are expressed in the quotient C/T which is calculated as follows: [formula]

Compound: C/C(=C\c1ccc(F)cc1)c1ccc2c(c1)C(C)(C)CCC2(C)C [a, (E)-6-(p-fluoro-α-methylstyryl)-1,2,3,4-tetrahydro-1,1,4,4-tetramethylnaphthalene]
- Diameter of the utriculus ([1]; 400 mg/kg p.o.): 117 μm
- Reduction (of the diameter of the utriculus) ([1]; 400 mg/kg p.o.): 21%
- Average number of tumours per rat ([2]; 30 mg/kg p.o. daily in feed): 47 % of controls
- Average tumour volume per rat in mm^3 [% of controls] ([2]; 30 mg/kg p.o. daily in feed): 22 % of controls
- Rats with tumours ([2]; 30 mg/kg p.o. daily in feed): 72 % of controls
- Average number of tumours per rat ([2]; 90 mg/kg p.o. daily in feed): 42 % of controls
- Average tumour volume per rat in mm^3 [% of controls] ([2]; 90 mg/kg p.o. daily in feed): 22 % of controls
- Rats with tumours ([2]; 90 mg/kg p.o. daily in feed): 69 % of controls
- Relative activity [3]: 0.87
- Inhibition of testosterone-stimulated sebum secretion [4]: 67%

Compound: CC1=C(/C=C/C(C)=C/C=C/C(C)=C/C(=O)O)C(C)(C)CCC1 [all-Trans-retinoic acid, reference compound]
- Relative activity [3]: 1

Compound: C/C(=C\c1ccc(Br)cc1)c1ccc2c(c1)C(C)(C)CCC2(C)C [b, (E)6-(p-Bromo-methylstyryl)-1,2,3,4-tetrahydro-1,1,4,4-tetramethylnaphthaene]
- Diameter of the utriculus ([1]; 400 mg/kg p.o.): 131 μm
- Reduction (of the diameter of the utriculus) ([1]; 400 mg/kg p.o.): 19%
- Average number of tumours per rat ([2]; 30 mg/kg p.o. daily in feed): 87 % of controls
- Average tumour volume per rat in mm^3 [% of controls] ([2]; 30 mg/kg p.o. daily in feed): 90 % of controls
- Rats with tumours ([2]; 30 mg/kg p.o. daily in feed): 106 % of controls
- Average number of tumours per rat ([2]; 90 mg/kg p.o. daily in feed): 87 % of controls
- Average tumour volume per rat in mm^3 [% of controls] ([2]; 90 mg/kg p.o. daily in feed): 43 % of controls
- Rats with tumours ([2]; 90 mg/kg p.o. daily in feed): 99 % of controls
- Quotient C/T of tumour weight of the untreated control animals and of the treated animals ([5]; 120 mg/kg p.o.): 1.6
- Relative activity [3]: 0.77
- Inhibition of testosterone-stimulated sebum secretion [4]: 65%

Compound: COc1ccc(/C=C(\C)c2ccc3c(c2)C(C)(C)CCC3(C)C)cc1 [c, 1,2,3 4-tetrahydro-6-[(E)-p-methoxy-α-methylstyryl]-1,1,4,4-tetramethylnaphthalene]
- Diameter of the utriculus ([1]; 133 mg/kg p.o.): 91 μm
- Reduction (of the diameter of the utriculus) ([1]; 133 mg/kg p.o.): 27%
- Diameter of the utriculus ([1]; 400 mg/kg p.o.): 61 μm
- Reduction (of the diameter of the utriculus) ([1]; 400 mg/kg p.o.): 51%
- Average number of tumours per rat ([2]; 30 mg/kg p.o. daily in feed): 56 % of controls
- Average tumour volume per rat in mm^3 [% of controls] ([2]; 30 mg/kg p.o. daily in feed): 78 % of controls
- Rats with tumours ([2]; 30 mg/kg p.o. daily in feed): 92 % of controls
- Average number of tumours per rat ([2]; 90 mg/kg p.o. daily in feed): 43 % of controls
- Average tumour volume per rat in mm^3 [% of controls] ([2]; 90 mg/kg p.o. daily in feed): 32 % of controls
- Rats with tumours ([2]; 90 mg/kg p.o. daily in feed): 85 % of controls
- Quotient C/T of tumour weight of the untreated control animals and of the treated animals ([5]; 40 mg/kg p.o.): 2.0
- Quotient C/T of tumour weight of the untreated control animals and of the treated animals ([5]; 120 mg/kg p.o.): 24.0
- Relative activity [3]: 1.04

Compound: C/C(=C\c1ccccc1)c1ccc2c(c1)C(C)(C)CC2(C)C [d, 1,1,3,3-tetramethyl-5-[(E)-α-methylstyryl]indane]
- Diameter of the utriculus ([1]; 133 mg/kg p.o.): 125 μm
- Reduction (of the diameter of the utriculus) ([1]; 133 mg/kg p.o.): 27%

Compound: C/C(=C\c1ccc(I)cc1)c1ccc2c(c1)C(C)(C)CCC2(C)C [e, (E)-6-[p-iodo-α-methylstyryl]-1,2,3,4-tetrahydro-1,1,4,4-tetramethylnaphthalene]
- Inhibition of testosterone-stimulated sebum secretion [4]: 71%

Compound: C/C(=C\c1ccc(Cl)cc1)c1ccc2c(c1)C(C)(C)CCC2(C)C [f, (E)-6-[p-chloro-α-methylstyryl]-1,2,3,4-tetrahydro-1,1,4,4-tetramethylnaphthalene]
- Quotient C/T of tumour weight of the untreated control animals and of the treated animals ([5]; 120 mg/kg p.o.): 1.6

Compound: CCCCCCCCc1cc2c(cc1C(C)=Cc1ccccc1)C(C)(C)CCC2(C)C [g, 1,2,3,4-tetrahydro-1,1,4,4-tetramethyl-6-(α-methylstyryl)-7-octylnaphthalene]
- Inhibition of testosterone-stimulated sebum secretion [4]: 71%
